Results taken from patent publication US11224633B2, “Kit for treating sepsis and/or any systemic (SIRS) or damaging cellular hyperinflammation” (priority 2015, dated 2022).

Experiments:
[1] = in vivo; cited from earlier work
[2] = test system: male IOPS Han Ico Wistar rats, septic shock by LPS Salmonella typhimurium
[3] = venous blood at euthanasia H 6h30, individual rats, selenite alone = group 2 perfusion
[4] = venous blood gases at euthanasia H 6h30, individual rats, selenite alone = group 2 perfusion

| Structure (SMILES) | NOAEL No Adverse Effect Level determined in nutrition, per kg [1] [μg/kg per day] | ScvO2 or SaO2 ([2]; blood at euthanasia H 6h30, individual rats, selenite alone = group 2 perfusion) | Creat ([2]; creatinine at H 6h30, individual rats, selenite alone = group 2 perfusion) | Gly ([2]; glycemia at H 6h30, individual rats, selenite alone = group 2 perfusion) | survival of animals ([2]; group 4: control B2 then Na2SeO3 alone in 3 flash injections every 10 min, LPS 50 mg/kg) | Lactate level ([2]; individual rats, LPS 50 mg/kg, sample at H 6h30, selenite alone = group 2, 0.3 mg/kg Se perfused over 30 min, Sel-P over 30 min, combination = Sel-P then 3 flash injections of selenite 0.1 mg/kg) [mmol/L] | CO3H— [2, 3] | Venous lactate [2, 3] [mmol/L] | PCO2 [2, 4] [mmHg] | PaO2 [2, 4] [mmHg] | pH [2, 4] |
| --- | --- | --- | --- | --- | --- | --- | --- | --- | --- | --- | --- |
| [Se] [selenium] | 11 |  |  |  |  |  |  |  |  |  |  |
| O=[Se](O)O [sodium selenite] |  | 8.9 | 156 | 0.27 | do not survive | 8.75 | 19.6 | 8.75 | 97 | 16 | 6.906 |
